# From PubChem BioAssay AID220 (DTP/NCI, 2004)
# Where “and” joins values, the source holds several entries; their conditions need not be identical. Equal entries are not always repeated. Records with an inconclusive call do not appear. Positions of bridges follow the written chain, without caps; N, C: chain ends. Non-standard residues stand in square brackets, D forms with d. Residues, ends and D or L forms follow the SMILES beside them. Chains are numbered I, II in the order given. *: point of attachment. Quinoxaline2carbonyl = O=C(c1cnc2ccccc2n1)*; NMeV = CN[CH](C(=O)O)C(C)C; NMeC = CN[CH](CS)C(=O)O
# Tested on: CD8F1 mice, subcutaneous mammary adenocarcinoma, T/C%
# Assay: NCI In Vivo Anticancer Drug Screen. Data for tumor model Mammary Adenocarcinoma CD8F1 (subcutaneous) in CD8F1
# Details: higher = larger tumour
# Description: The antitumor activity of compounds was measured in mice bearing transplantable tumors. Survival or tumor size were measured and the results are expressed as the measurement made in the treated group (T) divided by the measurement made in the vehicle treated control group (C). The tumor model used in this assay is Mammary Adenocarcinoma CD8F1 (subcutaneous) in CD8F1
# [1] = endpoint: median tumor weight (est.), dose: 100.0 mg/kg/injection, schedule: Q07DX005 (ip), vehicle: Klucel (hydroxypropylcellulose) (HPC)
# [2] = endpoint: median tumor weight change, dose: 125.0 mg/kg/injection, schedule: Q01DX001 (ip), vehicle: Klucel (hydroxypropylcellulose) (HPC)
# [3] = endpoint: median tumor weight change, dose: 250.0 mg/kg/injection, schedule: Q01DX001 (ip), vehicle: Klucel (hydroxypropylcellulose) (HPC)
# [4] = endpoint: median tumor weight change, dose: 500.0 mg/kg/injection, schedule: Q01DX001 (ip), vehicle: Klucel (hydroxypropylcellulose) (HPC)
# [5] = endpoint: median tumor weight change, dose: 1000.0 mg/kg/injection, schedule: Q01DX001 (ip), vehicle: Klucel (hydroxypropylcellulose) (HPC)
smiles,measurement,setting,value
OC1(CSc2ccccc2)CCCCC1,T/C,"endpoint: median tumor weight change, dose: 1000.0 mg/kg/injection, schedule: Q01DX001 (ip), vehicle: saline with Tween-80",13 % of control
CCOC(=O)c1ccc(NC(=O)Nc2nncs2)cc1,T/C,"endpoint: median tumor weight (est.), dose: 12.5 mg/kg/injection, schedule: Q07DX005 (ip), vehicle: distilled water + Tween-80",239 % of control
same,T/C,"endpoint: median tumor weight (est.), dose: 25.0 mg/kg/injection, schedule: Q07DX005 (ip), vehicle: distilled water + Tween-80",259 % of control
same,T/C,"endpoint: median tumor weight (est.), dose: 50.0 mg/kg/injection, schedule: Q07DX005 (ip), vehicle: distilled water + Tween-80",69 % of control
same,T/C,"endpoint: median tumor weight (est.), dose: 400.0 mg/kg/injection, schedule: Q07DX005 (ip), vehicle: distilled water + Tween-80",156 % of control
Cn1cnc([N+](=O)[O-])c1SCC(=O)O,T/C,[1],100 % of control
same,T/C,"endpoint: median tumor weight (est.), dose: 200.0 mg/kg/injection, schedule: Q07DX005 (ip), vehicle: Klucel (hydroxypropylcellulose) (HPC)",107 % of control
same,T/C,"endpoint: median tumor weight (est.), dose: 400.0 mg/kg/injection, schedule: Q07DX005 (ip), vehicle: Klucel (hydroxypropylcellulose) (HPC)",166 % of control
same,T/C,"endpoint: median tumor weight (est.), dose: 800.0 mg/kg/injection, schedule: Q07DX005 (ip), vehicle: Klucel (hydroxypropylcellulose) (HPC)",65 % of control
same,T/C,"endpoint: median tumor weight change, dose: 62.5 mg/kg/injection, schedule: Q01DX001 (ip), vehicle: Klucel (hydroxypropylcellulose) (HPC)",75 % of control
same,T/C,[2],72 % of control
same,T/C,[3],76 % of control
same,T/C,[4],74 % of control
same,T/C,[5],60 % of control
same,T/C,"endpoint: median tumor weight change, dose: 2000.0 mg/kg/injection, schedule: Q01DX001 (ip), vehicle: Klucel (hydroxypropylcellulose) (HPC)",68 % of control
C[n+]1c(/C=C\C=C\N2CCCCC2)sc2ccccc21,T/C,"endpoint: median tumor weight (est.), dose: 0.5 mg/kg/injection, schedule: Q07DX005 (ip), vehicle: Klucel (hydroxypropylcellulose) (HPC)",114 % of control
same,T/C,"endpoint: median tumor weight (est.), dose: 1.0 mg/kg/injection, schedule: Q07DX005 (ip), vehicle: Klucel (hydroxypropylcellulose) (HPC)",108 % of control
COc1cccc2c1C(=O)c1c(O)c3c(c(O)c1C2=O)C[C@H](O)C[C@@H]3OC1CC(N)C(O)C(C)O1 (some centres not stated),T/C,"endpoint: median tumor weight (est.), dose: 0.78 mg/kg/injection, schedule: Q07DX005 (ip), vehicle: saline",68 % of control
same,T/C,"endpoint: median tumor weight (est.), dose: 1.56 mg/kg/injection, schedule: Q07DX005 (ip), vehicle: saline",79 % of control
same,T/C,"endpoint: median tumor weight (est.), dose: 3.12 mg/kg/injection, schedule: Q07DX005 (ip), vehicle: saline",82 % of control
same,T/C,"endpoint: median tumor weight (est.), dose: 6.25 mg/kg/injection, schedule: Q07DX005 (ip), vehicle: saline",84 % of control
same,T/C,"endpoint: median tumor weight (est.), dose: 12.5 mg/kg/injection, schedule: Q07DX005 (ip), vehicle: saline",70 % of control
ClC(Cl)(Cl)C1=NCc2nnn(Cc3ccccc3)c2N1,T/C,"endpoint: median tumor weight (est.), dose: 12.5 mg/kg/injection, schedule: Q07DX005 (ip), vehicle: saline with Tween-80",102 % of control
same,T/C,"endpoint: median tumor weight (est.), dose: 25.0 mg/kg/injection, schedule: Q07DX005 (ip), vehicle: saline with Tween-80",66 % of control
same,T/C,"endpoint: median tumor weight (est.), dose: 100.0 mg/kg/injection, schedule: Q07DX005 (ip), vehicle: saline with Tween-80",191 % of control
same,T/C,"endpoint: median tumor weight (est.), dose: 200.0 mg/kg/injection, schedule: Q07DX005 (ip), vehicle: saline with Tween-80",107 % of control
same,T/C,"endpoint: median tumor weight (est.), dose: 400.0 mg/kg/injection, schedule: Q07DX005 (ip), vehicle: saline with Tween-80",96 % of control
Nc1nc(N)c2cc(CNc3ccc(C(=O)NC(CC(=O)O)CC(=O)O)cc3)ccc2n1,T/C,"endpoint: median tumor weight (est.), dose: 12.5 mg/kg/injection, schedule: Q07DX005 (ip), vehicle: Klucel (hydroxypropylcellulose) (HPC)",86 % of control
same,T/C,"endpoint: median tumor weight (est.), dose: 25.0 mg/kg/injection, schedule: Q07DX005 (ip), vehicle: Klucel (hydroxypropylcellulose) (HPC)",92 % of control
same,T/C,"endpoint: median tumor weight (est.), dose: 50.0 mg/kg/injection, schedule: Q07DX005 (ip), vehicle: Klucel (hydroxypropylcellulose) (HPC)",81 % of control
same,T/C,[1],54 % of control
Cc1c(N)nc([C@H](CC(N)=O)NC[C@H](N)C(N)=O)nc1C(=O)N[C@H](C(=O)N[C@H](C)[C@@H](O)CC(=O)N[C@H](C(=O)NC(O[C@@H]1O[C@@H](C)[C@@H](N)[C@@H](O)[C@H]1O)C(O)c1nc(-c2nc(C(=O)NCCCCN)cs2)cs1)[C@@H](C)O)[C@@H](O[C@@H]1O[C@@H](CO)[C@@H](O)[C@H](O)[C@@H]1O[C@H]1O[C@H](CO)[C@@H](O)[C@H](OC(N)=O)[C@@H]1O)c1c[nH]cn1 (some centres not stated),T/C,"endpoint: median tumor weight (est.), dose: 1.0 mg/kg/injection, schedule: Q07DX005 (ip), vehicle: saline",55 % of control
same,T/C,"endpoint: median tumor weight (est.), dose: 2.0 mg/kg/injection, schedule: Q07DX005 (ip), vehicle: saline",14 % of control and 26 % of control
same,T/C,"endpoint: median tumor weight (est.), dose: 4.0 mg/kg/injection, schedule: Q07DX005 (ip), vehicle: saline",18 % of control and 19 % of control
same,T/C,"endpoint: median tumor weight (est.), dose: 8.0 mg/kg/injection, schedule: Q07DX005 (ip), vehicle: saline",5 % of control
same,T/C,"endpoint: median tumor weight (est.), dose: 16.0 mg/kg/injection, schedule: Q07DX005 (ip), vehicle: saline",5 % of control
same,T/C,"endpoint: median tumor weight (est.), dose: 32.0 mg/kg/injection, schedule: Q07DX005 (ip), vehicle: saline",5 % of control
same,T/C,"endpoint: median tumor weight change, dose: 4.0 mg/kg/injection, schedule: Q01DX001 (ip), vehicle: saline",98 % of control
same,T/C,"endpoint: median tumor weight change, dose: 8.0 mg/kg/injection, schedule: Q01DX001 (ip), vehicle: saline",55 % of control
same,T/C,"endpoint: median tumor weight change, dose: 16.0 mg/kg/injection, schedule: Q01DX001 (ip), vehicle: saline",104 % of control
same,T/C,"endpoint: median tumor weight change, dose: 32.0 mg/kg/injection, schedule: Q01DX001 (ip), vehicle: saline",52 % of control
NC1=NCN(C2OC(CO)C(O)C2O)C(=O)N1 (configuration not stated),T/C,"endpoint: median tumor weight (est.), dose: 25.0 mg/kg/injection, schedule: Q07DX004 (ip), vehicle: saline",74 % of control
same,T/C,"endpoint: median tumor weight (est.), dose: 25.0 mg/kg/injection, schedule: Q07DX005 (ip), vehicle: suspension in saline",59 % of control
same,T/C,"endpoint: median tumor weight (est.), dose: 50.0 mg/kg/injection, schedule: Q07DX004 (ip), vehicle: saline",76 % of control
same,T/C,"endpoint: median tumor weight (est.), dose: 50.0 mg/kg/injection, schedule: Q07DX005 (ip), vehicle: suspension in saline",45 % of control
same,T/C,"endpoint: median tumor weight (est.), dose: 100.0 mg/kg/injection, schedule: Q07DX004 (ip), vehicle: saline",107 % of control
same,T/C,"endpoint: median tumor weight (est.), dose: 100.0 mg/kg/injection, schedule: Q07DX005 (ip), vehicle: suspension in saline",56 % of control
same,T/C,"endpoint: median tumor weight (est.), dose: 200.0 mg/kg/injection, schedule: Q07DX004 (ip), vehicle: saline",72 % of control
same,T/C,"endpoint: median tumor weight (est.), dose: 200.0 mg/kg/injection, schedule: Q07DX005 (ip), vehicle: suspension in saline",61 % of control
same,T/C,"endpoint: median tumor weight (est.), dose: 400.0 mg/kg/injection, schedule: Q07DX004 (ip), vehicle: saline",49 % of control
same,T/C,"endpoint: median tumor weight (est.), dose: 400.0 mg/kg/injection, schedule: Q07DX005 (ip), vehicle: suspension in saline",34 % of control
same,T/C,"endpoint: median tumor weight (est.), dose: 800.0 mg/kg/injection, schedule: Q07DX004 (ip), vehicle: saline",35 % of control
same,T/C,"endpoint: median tumor weight (est.), dose: 800.0 mg/kg/injection, schedule: Q07DX005 (ip), vehicle: suspension in saline",13 % of control
"CC1NC(=O)C(NC(=O)c2cnc3ccccc3n2)COC(=O)C(C(C)C)N(C)C(=O)C2CSSCC(C(=O)N(C)C(C(C)C)C(=O)OCC(NC(=O)c3cnc4ccccc4n3)C(=O)NC(C)C(=O)N2C)N(C)C1=O (configuration not stated) (I: Quinoxaline2carbonyl-SA[NMeC][NMeV] / II: Quinoxaline2carbonyl-SA[NMeC][NMeV]; ester I:1-II:C, I:C-II:1; disulfide I:3-II:3; configuration not given here)",T/C,"endpoint: median tumor weight change, dose: 25.0 micrograms/kg/injection, schedule: Q01DX001 (ip), vehicle: Klucel (hydroxypropylcellulose) (HPC)",77 % of control
same,T/C,"endpoint: median tumor weight change, dose: 50.0 micrograms/kg/injection, schedule: Q01DX001 (ip), vehicle: Klucel (hydroxypropylcellulose) (HPC)",91 % of control
same,T/C,"endpoint: median tumor weight change, dose: 100.0 micrograms/kg/injection, schedule: Q01DX001 (ip), vehicle: Klucel (hydroxypropylcellulose) (HPC)",89 % of control
same,T/C,"endpoint: median tumor weight change, dose: 200.0 micrograms/kg/injection, schedule: Q01DX001 (ip), vehicle: Klucel (hydroxypropylcellulose) (HPC)",68 % of control
same,T/C,"endpoint: median tumor weight change, dose: 400.0 micrograms/kg/injection, schedule: Q01DX001 (ip), vehicle: Klucel (hydroxypropylcellulose) (HPC)",59 % of control
COc1cc(C(=O)c2cocc2C(=O)c2ccc3c(c2)OCO3)cc(OC)c1OC,T/C,[2],92 % of control
same,T/C,[3],73 % of control
same,T/C,[4],62 % of control
same,T/C,[5],40 % of control
OCC(O)C(O)C(O)C(O)CO (configuration not stated),T/C,"endpoint: median tumor weight change, dose: 75.0 mg/kg/injection, schedule: Q01DX001 (ip), vehicle: saline",20 % of control
same,T/C,"endpoint: median tumor weight change, dose: 150.0 mg/kg/injection, schedule: Q01DX001 (ip), vehicle: saline",40 % of control
same,T/C,"endpoint: median tumor weight change, dose: 300.0 mg/kg/injection, schedule: Q01DX001 (ip), vehicle: saline",39 % of control
same,T/C,"endpoint: median tumor weight change, dose: 600.0 mg/kg/injection, schedule: Q01DX001 (ip), vehicle: saline",32 % of control
same,T/C,"endpoint: median tumor weight change, dose: 1200.0 mg/kg/injection, schedule: Q01DX001 (ip), vehicle: saline",45 % of control
